Experimental data taken from the NIST ThermoML archive (doi:10.1021/je049671t).
Numbers after ± are expanded uncertainties.

Experiment: xn = mol fraction of the nth substance listed
Settings: Liquid, Vibrating tube method

CC(C)C [2-methylpropane] + CCCC
Settings | mass density [kg/m3]
300 K, 5514.6 kPa, x2 = 0.25 | 564.1 ± 0.33
300 K, 5950.5 kPa, x2 = 0.75 | 574.92 ± 0.33
300 K, 5960.3 kPa, x2 = 0.5 | 570.04 ± 0.34
300 K, 6036.6 kPa, x2 = 0.25 | 565.05 ± 0.34
300 K, 6473.1 kPa, x2 = 0.75 | 575.78 ± 0.34
300 K, 6498 kPa, x2 = 0.25 | 565.9 ± 0.35
300 K, 6511.5 kPa, x2 = 0.5 | 571.01 ± 0.34
300 K, 7001.6 kPa, x2 = 0.25 | 566.76 ± 0.35
300 K, 7003.6 kPa, x2 = 0.5 | 571.85 ± 0.35
300 K, 7005.5 kPa, x2 = 0.75 | 576.66 ± 0.35
320 K, 978.9 kPa, x2 = 0.5 | 535.28 ± 0.29
320 K, 1008.4 kPa, x2 = 0.75 | 541.4 ± 0.29
320 K, 1010.3 kPa, x2 = 0.25 | 529.04 ± 0.29
320 K, 1496.2 kPa, x2 = 0.25 | 530.4 ± 0.3
320 K, 1506.1 kPa, x2 = 0.75 | 542.64 ± 0.29
320 K, 1594.1 kPa, x2 = 0.5 | 536.89 ± 0.3
320 K, 2006 kPa, x2 = 0.75 | 543.82 ± 0.3
320 K, 2007.9 kPa, x2 = 0.5 | 537.95 ± 0.3
320 K, 2013.6 kPa, x2 = 0.25 | 531.82 ± 0.3
320 K, 2503.8 kPa, x2 = 0.75 | 545.03 ± 0.3
320 K, 2511 kPa, x2 = 0.25 | 533.15 ± 0.31
320 K, 2513.8 kPa, x2 = 0.5 | 539.22 ± 0.31
320 K, 2989.3 kPa, x2 = 0.25 | 534.4 ± 0.31
320 K, 2990.8 kPa, x2 = 0.75 | 546.14 ± 0.31
320 K, 3020.8 kPa, x2 = 0.5 | 540.47 ± 0.31
320 K, 3465.4 kPa, x2 = 0.5 | 541.53 ± 0.32
320 K, 3504.2 kPa, x2 = 0.25 | 535.74 ± 0.32
320 K, 3510.6 kPa, x2 = 0.75 | 547.3 ± 0.32
320 K, 3972.8 kPa, x2 = 0.5 | 542.72 ± 0.32
320 K, 3986.7 kPa, x2 = 0.75 | 548.41 ± 0.32
320 K, 4006.4 kPa, x2 = 0.25 | 537 ± 0.33
320 K, 4485.3 kPa, x2 = 0.25 | 538.17 ± 0.33
320 K, 4492.1 kPa, x2 = 0.5 | 543.94 ± 0.33
320 K, 4515.1 kPa, x2 = 0.75 | 549.56 ± 0.33
320 K, 4992.4 kPa, x2 = 0.5 | 545.07 ± 0.34
320 K, 4997.8 kPa, x2 = 0.75 | 550.6 ± 0.33
320 K, 4998.1 kPa, x2 = 0.25 | 539.39 ± 0.34
320 K, 5465.3 kPa, x2 = 0.5 | 546.12 ± 0.34
320 K, 5506.3 kPa, x2 = 0.25 | 540.6 ± 0.34
320 K, 5508.2 kPa, x2 = 0.75 | 551.69 ± 0.34
320 K, 5970.9 kPa, x2 = 0.25 | 541.67 ± 0.35
320 K, 5971.8 kPa, x2 = 0.5 | 547.22 ± 0.35
320 K, 6015.9 kPa, x2 = 0.75 | 552.74 ± 0.35
320 K, 6462.7 kPa, x2 = 0.5 | 548.28 ± 0.35
320 K, 6488.4 kPa, x2 = 0.75 | 553.71 ± 0.35
320 K, 6514.9 kPa, x2 = 0.25 | 542.91 ± 0.36
320 K, 7034.9 kPa, x2 = 0.25 | 544.07 ± 0.36
320 K, 7065.7 kPa, x2 = 0.75 | 554.85 ± 0.36
320 K, 7093.8 kPa, x2 = 0.5 | 549.62 ± 0.36
340 K, 998.6 kPa, x2 = 0.5 | 506.59 ± 0.3
340 K, 1008.5 kPa, x2 = 0.75 | 513.55 ± 0.3
340 K, 1505.9 kPa, x2 = 0.75 | 515.25 ± 0.3
340 K, 1510 kPa, x2 = 0.25 | 501.39 ± 0.31
340 K, 1561.3 kPa, x2 = 0.5 | 508.67 ± 0.3
340 K, 2003.4 kPa, x2 = 0.25 | 503.24 ± 0.31
340 K, 2008.5 kPa, x2 = 0.5 | 510.27 ± 0.31
340 K, 2020.5 kPa, x2 = 0.75 | 516.97 ± 0.31
340 K, 2495.8 kPa, x2 = 0.25 | 505.08 ± 0.32
340 K, 2500.9 kPa, x2 = 0.75 | 518.54 ± 0.31
340 K, 2527.9 kPa, x2 = 0.5 | 512.06 ± 0.32
340 K, 3001.4 kPa, x2 = 0.5 | 513.65 ± 0.32
340 K, 3005.7 kPa, x2 = 0.75 | 520.07 ± 0.32
340 K, 3009.8 kPa, x2 = 0.25 | 506.91 ± 0.32
340 K, 3499.6 kPa, x2 = 0.75 | 521.61 ± 0.33
340 K, 3512.9 kPa, x2 = 0.25 | 508.67 ± 0.33
340 K, 3521.9 kPa, x2 = 0.5 | 515.35 ± 0.33
340 K, 4004.8 kPa, x2 = 0.25 | 510.31 ± 0.34
340 K, 4004.8 kPa, x2 = 0.75 | 523.11 ± 0.33
340 K, 4042.3 kPa, x2 = 0.5 | 516.97 ± 0.33
340 K, 4496.4 kPa, x2 = 0.75 | 524.53 ± 0.34
340 K, 4508.6 kPa, x2 = 0.25 | 511.95 ± 0.34
340 K, 4526.2 kPa, x2 = 0.5 | 518.46 ± 0.34
340 K, 4981.3 kPa, x2 = 0.25 | 513.47 ± 0.35
340 K, 4988.5 kPa, x2 = 0.5 | 519.84 ± 0.35
340 K, 4990.6 kPa, x2 = 0.75 | 525.87 ± 0.34
340 K, 5500.3 kPa, x2 = 0.25 | 515.08 ± 0.36
340 K, 5502 kPa, x2 = 0.5 | 521.34 ± 0.35
340 K, 5515.9 kPa, x2 = 0.75 | 527.37 ± 0.35
340 K, 5973.6 kPa, x2 = 0.75 | 528.61 ± 0.36
340 K, 5999.1 kPa, x2 = 0.25 | 516.58 ± 0.36
340 K, 6016.6 kPa, x2 = 0.5 | 522.8 ± 0.36
340 K, 6476.8 kPa, x2 = 0.5 | 524.07 ± 0.37
340 K, 6496.3 kPa, x2 = 0.75 | 529.99 ± 0.36
340 K, 6508.8 kPa, x2 = 0.25 | 518.07 ± 0.37
340 K, 7019.3 kPa, x2 = 0.75 | 531.33 ± 0.37
340 K, 7019.9 kPa, x2 = 0.25 | 519.55 ± 0.38
340 K, 7084.7 kPa, x2 = 0.5 | 525.72 ± 0.37
360 K, 1517.1 kPa, x2 = 0.75 | 483.05 ± 0.3
360 K, 1517.3 kPa, x2 = 0.5 | 475.07 ± 0.3
360 K, 1523.6 kPa, x2 = 0.25 | 466.34 ± 0.3
360 K, 1975.7 kPa, x2 = 0.25 | 469.15 ± 0.3
360 K, 1976.3 kPa, x2 = 0.75 | 485.36 ± 0.31
360 K, 2018.5 kPa, x2 = 0.5 | 477.84 ± 0.31
360 K, 2482.6 kPa, x2 = 0.25 | 472.1 ± 0.31
360 K, 2496 kPa, x2 = 0.75 | 487.85 ± 0.32
360 K, 2525 kPa, x2 = 0.5 | 480.5 ± 0.31
360 K, 2961.3 kPa, x2 = 0.75 | 489.97 ± 0.32
360 K, 3005.9 kPa, x2 = 0.5 | 482.91 ± 0.32
360 K, 3010.1 kPa, x2 = 0.25 | 474.99 ± 0.32
360 K, 3489.3 kPa, x2 = 0.75 | 492.24 ± 0.33
360 K, 3507.7 kPa, x2 = 0.25 | 477.58 ± 0.33
360 K, 3511.2 kPa, x2 = 0.5 | 485.28 ± 0.33
360 K, 3977.2 kPa, x2 = 0.75 | 494.26 ± 0.34
360 K, 4007.3 kPa, x2 = 0.25 | 480.03 ± 0.33
360 K, 4019.1 kPa, x2 = 0.5 | 487.57 ± 0.34
360 K, 4443.6 kPa, x2 = 0.75 | 496.16 ± 0.35
360 K, 4493 kPa, x2 = 0.25 | 482.35 ± 0.34
360 K, 4510.2 kPa, x2 = 0.5 | 489.71 ± 0.34
360 K, 4948.8 kPa, x2 = 0.75 | 498.12 ± 0.35
360 K, 5010.2 kPa, x2 = 0.25 | 484.66 ± 0.35
360 K, 5018.9 kPa, x2 = 0.5 | 491.8 ± 0.35
360 K, 5499.8 kPa, x2 = 0.75 | 500.18 ± 0.36
360 K, 5503.6 kPa, x2 = 0.25 | 486.78 ± 0.36
360 K, 5508.6 kPa, x2 = 0.5 | 493.77 ± 0.36
360 K, 5964.2 kPa, x2 = 0.75 | 501.91 ± 0.37
360 K, 6002.5 kPa, x2 = 0.25 | 488.86 ± 0.37
360 K, 6019.4 kPa, x2 = 0.5 | 495.75 ± 0.37
360 K, 6484.4 kPa, x2 = 0.75 | 503.73 ± 0.38
360 K, 6497.2 kPa, x2 = 0.25 | 490.83 ± 0.37
360 K, 6511.4 kPa, x2 = 0.5 | 497.56 ± 0.38
360 K, 7022.1 kPa, x2 = 0.5 | 499.47 ± 0.39
360 K, 7041 kPa, x2 = 0.25 | 492.93 ± 0.38
360 K, 7073.3 kPa, x2 = 0.75 | 505.68 ± 0.38
380 K, 1992.3 kPa, x2 = 0.75 | 445.43 ± 0.3
380 K, 2496.5 kPa, x2 = 0.25 | 428.54 ± 0.3
380 K, 2506.6 kPa, x2 = 0.5 | 440.41 ± 0.3
380 K, 2519.3 kPa, x2 = 0.75 | 449.94 ± 0.3
380 K, 3005 kPa, x2 = 0.5 | 444.82 ± 0.31
380 K, 3007.8 kPa, x2 = 0.25 | 433.95 ± 0.3
380 K, 3014.5 kPa, x2 = 0.75 | 453.77 ± 0.31
380 K, 3482.8 kPa, x2 = 0.75 | 457.09 ± 0.32
380 K, 3498.2 kPa, x2 = 0.25 | 438.53 ± 0.31
380 K, 3519 kPa, x2 = 0.5 | 448.92 ± 0.32
380 K, 4000 kPa, x2 = 0.25 | 442.76 ± 0.32
380 K, 4015.3 kPa, x2 = 0.5 | 452.56 ± 0.32
380 K, 4022 kPa, x2 = 0.75 | 460.64 ± 0.33
380 K, 4463.2 kPa, x2 = 0.25 | 446.33 ± 0.33
380 K, 4476.8 kPa, x2 = 0.75 | 463.44 ± 0.33
380 K, 4521.7 kPa, x2 = 0.5 | 456 ± 0.33
380 K, 4994 kPa, x2 = 0.75 | 466.44 ± 0.34
380 K, 5001.3 kPa, x2 = 0.5 | 459.04 ± 0.34
380 K, 5004.6 kPa, x2 = 0.25 | 450.19 ± 0.33
380 K, 5481.2 kPa, x2 = 0.25 | 453.35 ± 0.34
380 K, 5504.5 kPa, x2 = 0.75 | 469.24 ± 0.35
380 K, 5511.6 kPa, x2 = 0.5 | 462.08 ± 0.35
380 K, 5986.7 kPa, x2 = 0.25 | 456.5 ± 0.35
380 K, 5998.4 kPa, x2 = 0.75 | 471.8 ± 0.36
380 K, 6010.6 kPa, x2 = 0.5 | 464.88 ± 0.35
380 K, 6475.4 kPa, x2 = 0.75 | 474.16 ± 0.37
380 K, 6476.8 kPa, x2 = 0.25 | 459.36 ± 0.36
380 K, 6505.2 kPa, x2 = 0.5 | 467.52 ± 0.36
380 K, 6967.5 kPa, x2 = 0.75 | 476.48 ± 0.37
380 K, 6981.4 kPa, x2 = 0.5 | 469.94 ± 0.37
380 K, 7003.2 kPa, x2 = 0.25 | 462.28 ± 0.37

mass density [kg/m3]
Settings | 300 K | 320 K | 340 K | 360 K | 380 K
x2 = 0.25 | 553.87 ± 0.27 | 527.89 ± 0.28 | 499.35 ± 0.29 | – | 424.73 ± 0.27
x2 = 0.5 | 559.44 ± 0.27 | 534.14 ± 0.28 | 506.18 ± 0.29 | 474.18 ± 0.28 | 435.21 ± 0.27
x2 = 0.75 | 564.78 ± 0.27 | 540.17 ± 0.28 | 512.91 ± 0.28 | 481.73 ± 0.28 | 445.14 ± 0.27
